Laboratory results taken from ChEMBL document CHEMBL1201862, “PubChem BioAssay data set” (2004).
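Tested at 5 concentrations; 48 h exposure; 96-well plates; endpoints linearly interpolated, else capped at highest concentration. The concentration for 50% growth inhibition is given as GI50.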 Active and inactive are the calls of the source. Rule as the data show it: active = GI50 up to about 1.1 µM and inactive = higher.

How the values were obtained:
Assay in all cases: growth of human tumour cells (NCI), 48 h
SW-620 = system: SW-620
NCI/ADR-RES = system: NCI/ADR-RES
HCT-116 = system: HCT-116
CCRF-CEM = system: CCRF-CEM
SK-OV-3 = system: SK-OV-3
OVCAR-5 = system: OVCAR-5
RPMI-8226 = system: RPMI-8226
OVCAR-8 = system: OVCAR-8
MCF7 = system: MCF7
UACC-257 = system: UACC-257
UACC-62 = system: UACC-62
CAKI-1 = system: CAKI-1
HL-60 = system: HL-60
SF-268 = system: SF-268
A549 = system: A549
NCI-H226 = system: NCI-H226
NCI-H522 = system: NCI-H522
MDA-MB-435 = system: MDA-MB-435
M14 = system: M14
ACHN = system: ACHN

| Compound | GI50 (SW-620) | GI50 (NCI/ADR-RES) | GI50 (HCT-116) | GI50 (CCRF-CEM) | GI50 (SK-OV-3) | GI50 (OVCAR-5) | GI50 (RPMI-8226) | GI50 (OVCAR-8) | GI50 (MCF7) | GI50 (UACC-257) | GI50 (UACC-62) | GI50 (CAKI-1) | GI50 (HL-60) | GI50 (SF-268) | GI50 (A549) | GI50 (NCI-H226) | GI50 (NCI-H522) | GI50 (MDA-MB-435) | GI50 (M14) | GI50 (ACHN) |
| --- | --- | --- | --- | --- | --- | --- | --- | --- | --- | --- | --- | --- | --- | --- | --- | --- | --- | --- | --- | --- |
| CC1(CO)C(O)CCC2(C)C1C(O)CC1CC3CC12CCC3(O)CO (centres undefined) | > 225 µM (inactive) | > 225 µM (inactive) | > 217 µM (inactive) | 138 µM (inactive) | > 225 µM (inactive) | > 225 µM (inactive) | > 158 µM (inactive) | > 213 µM (inactive) | > 217 µM (inactive) | > 225 µM (inactive) | > 225 µM (inactive) | > 225 µM (inactive) | 102 µM (inactive) | > 191 µM (inactive) | > 225 µM (inactive) | 116 µM (inactive) | > 225 µM (inactive) | – | – | – |
| N#CC1(C#N)C2CCCCC23OC(=N)C1(C#N)C(c1ccccc1)O3 (centres undefined) | 14.8 µM (inactive) | 41.5 µM (inactive) | 17 µM (inactive) | 5.24 µM (inactive) | > 100 µM (inactive) | 21.2 µM (inactive) | – | 21 µM (inactive) | 16.6 µM (inactive) | 18 µM (inactive) | 17.9 µM (inactive) | 10.8 µM (inactive) | – | 2.49 µM (inactive) | > 100 µM (inactive) | > 100 µM (inactive) | – | 25.6 µM (inactive) | 12.7 µM (inactive) | 36.1 µM (inactive) |
| Cc1ccc(S(=O)(=O)N2CC2CCCCC=O)cc1 (centres undefined) | 52.7 µM (inactive) | > 100 µM (inactive) | 57 µM (inactive) | 21.6 µM (inactive) | > 100 µM (inactive) | > 100 µM (inactive) | 37.8 µM (inactive) | > 100 µM (inactive) | – | > 100 µM (inactive) | 50.7 µM (inactive) | > 100 µM (inactive) | – | > 100 µM (inactive) | > 100 µM (inactive) | > 100 µM (inactive) | 72.8 µM (inactive) | > 100 µM (inactive) | 51.3 µM (inactive) | 31.3 µM (inactive) |
| CN1CCN(C(=S)N(C(=O)c2ccc(Cl)cc2)C2CCCCC2)CC1 | > 100 µM (inactive) | – | – | 72.4 µM (inactive) | – | > 100 µM (inactive) | > 100 µM (inactive) | > 100 µM (inactive) | > 100 µM (inactive) | > 100 µM (inactive) | > 100 µM (inactive) | – | 61.7 µM (inactive) | > 100 µM (inactive) | > 100 µM (inactive) | > 100 µM (inactive) | > 100 µM (inactive) | > 100 µM (inactive) | > 100 µM (inactive) | > 100 µM (inactive) |
| COC1CC(C)C(OC)c2cc(O)cc(c2O)NC(=O)/C(C)=C/C=C\C(C)C(OC(N)=O)/C(C)=C\C(C)C1OC (centres undefined) | 0.082 µM (active) | – | 0.297 µM (active) | 0.192 µM (active) | 0.292 µM (active) | 1.47 µM (inactive) | 0.152 µM (active) | 7.28 µM (inactive) | 0.125 µM (active) | 0.397 µM (active) | 0.274 µM (active) | – | – | 2.19 µM (inactive) | 2.51 µM (inactive) | 7.35 µM (inactive) | 0.0863 µM (active) | 0.0998 µM (active) | 1.02 µM (active) | 4.98 µM (inactive) |
| O=S(=O)(O)c1cc(S(=O)(=O)O)c2c(/N=N/c3ccc(S(=O)(=O)O)c4ccccc34)c(O)ccc2c1 | > 100 µM (inactive) | > 100 µM (inactive) | > 100 µM (inactive) | > 100 µM (inactive) | > 100 µM (inactive) | > 100 µM (inactive) | > 100 µM (inactive) | > 100 µM (inactive) | – | > 100 µM (inactive) | > 100 µM (inactive) | > 100 µM (inactive) | > 100 µM (inactive) | > 100 µM (inactive) | > 100 µM (inactive) | > 100 µM (inactive) | > 100 µM (inactive) | > 100 µM (inactive) | > 100 µM (inactive) | > 100 µM (inactive) |
